Experimental findings from patent publication US6177572A, “Solid and liquid-phase synthesis of benzoxazoles and benzothiazoles and their use” (Sepracor, Inc., priority 1997, dated 2001) are described below.

What all share (assay type): cell-based
The subject of one assay is Saccharomyces. Description: Modified Kirby-Bauer Assay Against Saccharomyces. Particulars: 10 mg/ml. As for the experimental part:
(§1) Modified Kirby-Bauer Susceptibility Testing (see, e.g., Finegold et al. "Diagnostic Microbiology," 6th Ed., C. V. Mosby Co., St. Louis, (1982), pp. 542-543: Microorganisms are grown on a solid medium in order to ensure a pure homogeneous culture. This requires an 18-24 hour grow out. Once purity is determined, the microorganism is sub-cultured by picking off one to three colonies from the solid medium using a sterile loop, and placing the colonies onto an appropriate liquid medium (e.g., Brain Heart Infusion for bacteria and Sabouraud's Dextrose for yeast or fungi). The microorganisms are then allowed to grow for 4-6 hours at the appropriate atmospheric and temperature conditions. After the 4-6 hour grow out, the microorganisms are ready for testing.
(§2) The MacFarland standard is prepared by mixing Barium Chloride with sulfuric acid in the appropriate proportions, as is known in the art (see, e.g. Finegold et al., supra). Once the cultures have been standardized, sterile cotton swabs are used to apply the microorganisms to agar plates for testing. The plates are swabbed in three different directions, rotating the plates 60 each time. After the microorganisms have been applied to the plate, 10-12 paper disks (1/4") in diameter are spaced evenly around the plate. […] The zones are measured in millimeters and recorded. […]

In another assay the test system is Candida. Description: Modified Kirby-Bauer Assay Against Candida. The note with it: 10 mg/ml. As for the experimental part:
as §1, §2

The test system of the next assay is E. Coli. Description: Modified Kirby-Bauer Assay Against E. Coli. The note with it: Escherichia coli, control, 10 mg/ml, read-out: zone size of inhibited microbial growth (diameter), control. As for the experimental part:
as §1, §2

A further assay has as its system Staphylococcus aureus. Description: Modified Kirby-Bauer Assay Against Staphylococcus aureus. Particulars: read-out: zone size of inhibited microbial growth (diameter), control. As for the experimental part: as §1, §2

The structures appear in SMILES notation.

Turning to `CCC(C)n1ncn(-c2ccc(N3CCN(c4ccc(OCC5COC(Cn6cncn6)(c6ccc(Cl)cc6Cl)O5)cc4)CC3)cc2)c1=O` (single isomer, unassigned; (-)) [(-) cis itraconazole], the “zone size of inhibited microbial growth (diameter), control” value in the assay on Saccharomyces and in the assay on Candida was 15 mm in each case.
On to `CN(C)C1C(O)=C(C(N)=O)C(=O)C2(O)C(O)=C3C(=O)c4c(O)cccc4C(C)(O)C3CC12` (stereo not drawn) [Tetracylcine], for which the zone of inhibition at 10000 µg/mL in the assay with E. Coli came out at 22 mm; in the assay on Staphylococcus aureus, 25 mm.
Take `CCC(C)n1ncn(-c2ccc(N3CCN(c4ccc(OCC5COC(Cn6cncn6)(c6ccc(Cl)cc6Cl)O5)cc4)CC3)cc2)c1=O` (single isomer, unassigned; (+)) [(+) cis-itraconazole]: the “zone size of inhibited microbial growth (diameter), control” value with Saccharomyces and in the assay on Candida was 12 mm each time.
